Among the test systems are DLD-1; DMS-114; HOP-18; KM-20L2; LXFL 529; M19-MEL; RXF 631; SNB-78; XF498.
What all share (experiment): growth of human tumour cells (NCI), 48 h

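Method: 48-hour compound exposure of cells in 96-well plates, five concentrations, linear interpolation of endpoints. GI50 is the concentration that inhibits growth by half.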 Calls of active or inactive are those of the source. Rule as the data show it: active = GI50 up to about 1.1 µM and inactive = higher.

The values below come from ChEMBL document CHEMBL1201862, “PubChem BioAssay data set” (2004).

With `COc1ccc(C(=O)/C(=N/Nc2ccccc2)c2ccc(OC)cc2)cc1`, the GI50 in the test with DLD-1 was 6.87 µM (inactive); in the test on DMS-114, 58.1 µM (inactive); in the test on HOP-18 it was > 100 µM (inactive); in the test with KM-20L2 it was 10.2 µM (inactive); with LXFL 529, 25.2 µM (inactive); in the test with M19-MEL, > 100 µM (inactive). For the same molecule, the GI50 in the test with RXF 631 was 8.43 µM (inactive); in the test on SNB-78, > 100 µM (inactive); with XF498 it was > 100 µM (inactive).
`COc1ccc(NC(=O)c2cc(OC)c(OC)c(OC)c2)cc1`: the GI50 with DLD-1 was 50.6 µM (inactive); in the test with DMS-114, 25.7 µM (inactive); in the test with HOP-18, > 64.6 µM (inactive); in the test with KM-20L2, 32.7 µM (inactive); with LXFL 529, 51.8 µM (inactive); in the test with M19-MEL, 41.7 µM (inactive). Moreover, the GI50 was > 56.4 µM (inactive) in the test with RXF 631, 42.7 µM (inactive) in the test on SNB-78 and > 100 µM (inactive) in the test with XF498.
As for `O=C(CC1(O)C(=O)Nc2c(Cl)cc(Cl)cc21)c1ccc(Br)cc1Br` (stereo not drawn), the GI50 in the test with DLD-1 is 5.48 µM (inactive); with DMS-114, 6.56 µM (inactive); in the test with HOP-18, 14.4 µM (inactive); with KM-20L2 it was 18.6 µM (inactive); with M19-MEL, 9.04 µM (inactive); in the test on RXF 631, 4.66 µM (inactive). Moreover, the results for the GI50 in the test on SNB-78 and with XF498 were 22.5 µM (inactive) and 11.6 µM (inactive), respectively.
In the case of `CC(=O)OC1COC(N2C(=O)/C(=N\Nc3ccc([N+](=O)[O-])cc3)c3cc(Br)c([N+](=O)[O-])cc32)C(OC(C)=O)C1OC(C)=O` (stereo not drawn), the GI50 in the test with DLD-1 was > 100 µM (inactive); in the test on HOP-18 it was > 100 µM (inactive); in the test on KM-20L2, 32.1 µM (inactive); in the test with LXFL 529, 21.8 µM (inactive); with M19-MEL, > 100 µM (inactive); in the test with RXF 631, 22.2 µM (inactive). Moreover, the GI50 in the test with SNB-78 is 27.2 µM (inactive); with XF498, 32.8 µM (inactive).
`COc1ccc2n[se]nc2c1`: the GI50 with DLD-1 was > 100 µM (inactive); with DMS-114, > 100 µM (inactive); with HOP-18, < 0.01 µM (active); in the test with KM-20L2, > 100 µM (inactive); in the test with LXFL 529, > 100 µM (inactive); in the test on RXF 631, 61.4 µM (inactive). The GI50 in the test on SNB-78 and in the test with XF498 was > 100 µM (inactive) throughout.
In the case of `COc1cccc(/C=C2\CCC(CCN(C)C)(C3=CCCC3)C2=O)c1` (stereo not drawn), the GI50 in the test with DLD-1 was 17.8 µM (inactive); in the test with DMS-114, 14.3 µM (inactive); in the test on HOP-18 it was 13.7 µM (inactive); in the test with LXFL 529, 15.5 µM (inactive); with M19-MEL it was 16.4 µM (inactive); in the test on RXF 631 it was 23.7 µM (inactive). For the same molecule, the GI50 in the test on XF498 was 17.7 µM (inactive).
With `CCCN(CCCCC(NC(C)=O)C(=O)NCc1ccccc1)C(=O)N(CCCl)N=O` (stereo not drawn), the GI50 is > 68.9 µM (inactive) in the test with DLD-1; 98.2 µM (inactive) in the test on DMS-114; > 100 µM (inactive) in the test with HOP-18; > 100 µM (inactive) in the test on KM-20L2; > 100 µM (inactive) with LXFL 529; > 82.6 µM (inactive) in the test on M19-MEL. In addition, the GI50 with RXF 631, in the test on SNB-78 and with XF498 was > 100 µM (inactive) each time.
